Values quoted from earlier work in PMC11094875, “Cholecystokinin B receptor agonists alleviates anterograde amnesia in cholecystokinin-deficient and aged Alzheimer's disease mice” (Alzheimer's Research & Therapy, 2024).
Where two headings read alike, the source gives them in different places.

Key:
[1] = as stated in the MWM method for the dosing schedule; no reference given
[2] = human plasm ref 31
[3] = rat plasm ref 31

SMILES: CSCC[C@H](NC(=O)[C@@H](N)Cc1c[nH]c2ccccc12)C(=O)N[C@@H](CC(=O)O)C(=O)N[C@@H](Cc1ccccc1)C(N)=O [CCK-4, CCK tetrapeptide]
- half-life [1]: less than 5 min
- half-life [2]: 13 min
- half-life [3]: < 1 min
